Earlier results, collected in patent US20040110781A1 (priority 2002, published 2004).

Tested on: excitory opioid receptors on sensory neurons

Compound: C[C@@H](NC(=O)[C@@H](N)Cc1ccc(O)cc1)C(=O)NCC(=O)N[C@@H](Cc1ccccc1)C(=O)NNC(=O)[C@H](Cc1ccccc1)NC(=O)CNC(=O)[C@@H](C)NC(=O)[C@@H](N)Cc1ccc(O)cc1 [biphalin]
- action on excitory opioid receptor functions: selective antagonists of excitory opioid receptors functions
